Test results taken from US11964996B2, “2-alkynylmannose derivative and application thereof” (priority 2020, dated 2024).

The compounds below were run against T1, FimH proteins (Escherichia coli, UniProt Q1R2J4) (assay: hemagglutination inhibition (HAI) assay: UPEC UTI89 with guinea pig red blood cells). Details: read-out: HAI EC90 (minimum concentration for inhibiting hemagglutination).
T1 construct: endogenous in cells; host or cells: UPEC strain UTI89 (whole bacteria)
Assay type: cell-based, uropathogenic Escherichia coli (UPEC) UTI89
Description: In the present example, the mannose derivatives A1 to A107 that were prepared in Examples 1 to 12 were analyzed in hemagglutination inhibition (HAI) assays to determine inhibitory effects of the compounds on the function/activity of FimH proteins.
1. Preparation of a guinea pig red blood cell solution: an adult guinea pig was anesthetized with ethyl ether, blood was sampled from the heart, placed in an EDTA blood collection tube, and centrifuged at 2,000 rpm for 5 min, serum was removed, the sample was transferred in a centrifuge tube (15 mL), sterilized PBS was added, the sample was centrifuged at 1,500 rpm for 10 min, a supernatant was removed, the sample was transferred in a centrifuge tube (50 mL), PBS was added, the sample was centrifuged at 1,500 rpm for 10 min and repeatedly washed twice, and red blood cells were slightly aspirated into a new centrifuge tube (50 mL) to obtain a 5% guinea pig red blood cell solution.
2. Preparation of a bacteria solution: a UPEC cell line UTI89 was inoculated on a medium plate and cultured in an incubator at 37° C. overnight. Single colonies were picked and inoculated in an LB medium in a sterilized conical flask, and cultured at 37° C. and 170 r/min overnight. When an OD value at 540 nm was about 0.8 on a microplate reader, the bacterial concentration was about 10^8-10^9 cfu/mL, the bacteria solution was centrifuged at 2,000 rpm for 10 min, a supernatant was removed, and 1 mL of bacteria solution was prepared into 0.1 mL of PBS bacteria solution. […] The bacteria and the medium were uniformly mixed by shaking, and reacted in an incubator at 25° C. for about 20-40 min. When the plate was read, the wells in which complete agglutination occurred were used as 4HAU for the hemagglutination titer of the bacteria. For example, if the endpoint titer of hemagglutination is 1:256, the dilution multiple of the 4HAU antigen is 1:64 (256 divided by 4). Bacteria solutions at corresponding concentrations were prepared according to the experimental results.
3. Activity assay: a compound to be tested or a standard product was placed in a 96-well microtest plate, 50 μL of drug at an initial concentration of 200 μM was placed in the first well, and from the second well, 25 μL of PBS was added to each well to dilute the drug in proportion. The drug and the medium in the first well were mixed, 25 μL of mixed drug solution was placed in the second well, the drug solution was diluted in sequence to the last well, and 25 μL of drug solution was removed. 25 μL of bacteria solution was placed in each well of the culture plate containing the diluted drug, and cultured at 37° C. for 40 min. 25 μL of 5% guinea pig red blood cell suspension was placed in each well, and slightly uniformly mixed with the drug, and the plate was placed at 4° C. for about 1 h. When results were determined, the plate was tilted 60°, and whether the red blood cells flowed like teardrops was observed.
Mannosyl proteins are expressed on the surface of red blood cells in a guinea pig, which can bind to FimH proteins of UTI89 to cause hemagglutination. It can be observed with the naked eyes that the red blood cells form film-like agglutination at the bottom of the well, and loose red dots can be seen in the center. The FimH protein inhibitor competitively binds to FimH proteins to inhibit hemagglutination. It can be observed with the naked eyes that all the red blood cells sink and concentrate at the bottom of the well to form dense dots. The minimum concentration for inhibiting hemagglutination is expressed as an EC90 value of a compound. The final concentration of the compound in the first well is 66700 nM, the concentration in the second well is half that in the first well, the concentration in the third well is half that in the second well, and so on. […] A low EC90 value indicates high activity of a compound.
`OC[C@H]1O[C@H](C#Cc2cnn(-c3ccc(F)cc3)c2)[C@](O)(C#CC2CC2)[C@@H](O)[C@@H]1O` [Compound A93] showed an EC90 of 2 nM. `Cn1cc(C#C[C@@]2(O)[C@@H](C#Cc3cnn(-c4ccccc4)c3)O[C@H](CO)[C@@H](O)[C@@H]2O)cn1` [Compound A84] gave an EC90 of 0.25 nM. With `CCOc1ccc(-n2cc(C#C[C@H]3O[C@H](CO)[C@@H](O)[C@H](O)[C@@]3(O)C#CC3CC3)cn2)cc1` [Compound A106] the EC90 was < 0.1 nM. With `CC(C)Oc1cccc(C#C[C@H]2O[C@H](CO)[C@@H](O)[C@H](O)[C@@]2(O)C#Cc2ccccc2)c1` [Compound A27] the EC90 was 130 nM. Compound `N#Cc1ccccc1-n1cc(C#C[C@H]2O[C@H](CO)[C@@H](O)[C@H](O)[C@@]2(O)C#Cc2ccccc2)cn1` [Compound A65] has an EC90 of 64 nM. `OC[C@H]1O[C@H](C#Cc2cnn(Cc3ccccc3)c2)[C@](O)(C#Cc2ccccc2)[C@@H](O)[C@@H]1O` [Compound A43] gave an EC90 of 32 nM. Work on `OC[C@H]1O[C@H](C#Cc2cnn(C3CCCCC3)c2)[C@](O)(C#CC2CC2)[C@@H](O)[C@@H]1O` [Compound A59] yielded an EC90 of 4 nM. `OC[C@H]1O[C@H](C#CC2CC2)[C@](O)(C#Cc2ccccc2)[C@@H](O)[C@@H]1O` [Compound A16] gave an EC90 of 130 nM.
